Laboratory results reported in paper doi:10.1101/2025.03.14.643404, “A Bivalent Molecular Glue Linking Lysine Acetyltransferases to Oncogene-induced Cell Death” (bioRxiv, 2025).
“Also recorded” adds a separate entry of the source.

Tests used:
p300 = biological target: T1, p300 (Homo sapiens, UniProt Q09472); experiment: Global proteome profiling in SUDHL5, p300 abundance; assay type: cell-based; conditions: SUDHL5, 10 nM, 24 hours
T1 construct: endogenous in cells; host or cells: SUDHL5
Experimental: SUDHL5 cells (6M cells in 6 mL RPMI-1640 media supplemented with 10% FBS and 1x pen-strep) were treated with 0.1% DMSO, 10 nM TCIP3, 10 nM Neg1, 10 nM Neg2, or 250 nM dCBP1 (1000x stocks in DMSO for final 0.1% DMSO concentration) in 3 biologically independent replicates. The cells were washed twice with TBS (50 mM Tris, pH 8.5, and 150 mM NaCl) and then stored at −80 °C until use.
Lysis was performed by first thermally denaturing the samples in residual wash buffer for 5 min at 95 °C. Fresh Lysis Buffer (8 M urea, 150 mM NaCl, and 100 mM HEPES, pH 8.0, in MS-grade water) was then added, and the lysates were homogenized using needle ultrasonication and then normalized to 30 μg of 2 mg/mL by diluting with Lysis Buffer via a Bradford protein concentration assay (Bio-Rad 5000006) in technical duplicates. […]
Samples were then desalted using SOLAμ SPE HRP Peptide Desalting columns (Thermo 60209–001) with a Positive Pressure Manifold and all MS-grade reagents. […] The samples were then reconstituted in 0.1% FA in water and then analyzed by LC-MS/MS (see below).
The reconstituted desalted peptides were then analyzed using a nanoElute 2 UHPLC (Bruker Daltonics, Bremen, Germany) coupled to a timsTOF HT (Bruker Daltonics, Bremen, Germany) via a CaptiveSpray nano-electrospray source. […]

[1] = tested on: B and T cells isolated from primary tonsillar lymphocytes; experiment: Viability of primary tonsillar lymphocytes, 72 h; assay type: cell-based, human; conditions: primary tonsillar lymphocytes of two donors, compared with SUDHL5
c-MYC = experiment: RNA-seq, c-MYC transcripts in SUDHL5; assay type: cell-based, human; conditions: SUDHL5, 1 nM, 2 hours
Experimental: Cells were plated at 1M/mL and harvested in TRIsure (Bioline 38033). RNA was extracted using Direct-zol RNA MicroPrep columns (Zymo R2062) treated with DNAseI. cDNA was prepared (Meridian Bioscience BIO-65054) and used for qPCR (Meridian Bioscience BIO-94050) using an AppliedBiosystems QuantStudio 6Pro. Primer sequences were the following:
For sequencing library preparation, rRNA was depleted (NEB E7400) and total RNA prepared into paired-end libraries (NEB E7765) and indexed (NEB E7335). Library size distributions were confirmed using an Agilent Bioanalyzer and High Sensitivity DNA reagents (Agilent 5067) and concentrations determined by qPCR. […]
Raw reads were checked for quality using fastqc (https://www.bioinformatics.babraham.ac.uk/projects/fastqc/) and trimmed from adapters using cutadapt[111] using parameters cutadapt -a […] -b […] --nextseq-trim=20 --minimum-length 1. Transcripts were quantified using kallisto[112] against the human Gencode v33 indexed transcriptome and annotations. […] Re-processed published datasets from the Sequence Read Archive (SRA) were the following: TCIP1 – SRX20228454, SRX20228455, SRX202284546, SRX20228457, SRX20228458, SRX20228459, SRX20228448, SRX20228449, SRX20228450; CDK-TCIP1 – SRX22117221, SRX22117222, SRX22117223, SRX22117224, SRX22117225, SRX22117226, SRX22117227, SRX22117228, SRX22117229).

T1 sequence (Q09472 2-2414 limits assumed, other chains not shown): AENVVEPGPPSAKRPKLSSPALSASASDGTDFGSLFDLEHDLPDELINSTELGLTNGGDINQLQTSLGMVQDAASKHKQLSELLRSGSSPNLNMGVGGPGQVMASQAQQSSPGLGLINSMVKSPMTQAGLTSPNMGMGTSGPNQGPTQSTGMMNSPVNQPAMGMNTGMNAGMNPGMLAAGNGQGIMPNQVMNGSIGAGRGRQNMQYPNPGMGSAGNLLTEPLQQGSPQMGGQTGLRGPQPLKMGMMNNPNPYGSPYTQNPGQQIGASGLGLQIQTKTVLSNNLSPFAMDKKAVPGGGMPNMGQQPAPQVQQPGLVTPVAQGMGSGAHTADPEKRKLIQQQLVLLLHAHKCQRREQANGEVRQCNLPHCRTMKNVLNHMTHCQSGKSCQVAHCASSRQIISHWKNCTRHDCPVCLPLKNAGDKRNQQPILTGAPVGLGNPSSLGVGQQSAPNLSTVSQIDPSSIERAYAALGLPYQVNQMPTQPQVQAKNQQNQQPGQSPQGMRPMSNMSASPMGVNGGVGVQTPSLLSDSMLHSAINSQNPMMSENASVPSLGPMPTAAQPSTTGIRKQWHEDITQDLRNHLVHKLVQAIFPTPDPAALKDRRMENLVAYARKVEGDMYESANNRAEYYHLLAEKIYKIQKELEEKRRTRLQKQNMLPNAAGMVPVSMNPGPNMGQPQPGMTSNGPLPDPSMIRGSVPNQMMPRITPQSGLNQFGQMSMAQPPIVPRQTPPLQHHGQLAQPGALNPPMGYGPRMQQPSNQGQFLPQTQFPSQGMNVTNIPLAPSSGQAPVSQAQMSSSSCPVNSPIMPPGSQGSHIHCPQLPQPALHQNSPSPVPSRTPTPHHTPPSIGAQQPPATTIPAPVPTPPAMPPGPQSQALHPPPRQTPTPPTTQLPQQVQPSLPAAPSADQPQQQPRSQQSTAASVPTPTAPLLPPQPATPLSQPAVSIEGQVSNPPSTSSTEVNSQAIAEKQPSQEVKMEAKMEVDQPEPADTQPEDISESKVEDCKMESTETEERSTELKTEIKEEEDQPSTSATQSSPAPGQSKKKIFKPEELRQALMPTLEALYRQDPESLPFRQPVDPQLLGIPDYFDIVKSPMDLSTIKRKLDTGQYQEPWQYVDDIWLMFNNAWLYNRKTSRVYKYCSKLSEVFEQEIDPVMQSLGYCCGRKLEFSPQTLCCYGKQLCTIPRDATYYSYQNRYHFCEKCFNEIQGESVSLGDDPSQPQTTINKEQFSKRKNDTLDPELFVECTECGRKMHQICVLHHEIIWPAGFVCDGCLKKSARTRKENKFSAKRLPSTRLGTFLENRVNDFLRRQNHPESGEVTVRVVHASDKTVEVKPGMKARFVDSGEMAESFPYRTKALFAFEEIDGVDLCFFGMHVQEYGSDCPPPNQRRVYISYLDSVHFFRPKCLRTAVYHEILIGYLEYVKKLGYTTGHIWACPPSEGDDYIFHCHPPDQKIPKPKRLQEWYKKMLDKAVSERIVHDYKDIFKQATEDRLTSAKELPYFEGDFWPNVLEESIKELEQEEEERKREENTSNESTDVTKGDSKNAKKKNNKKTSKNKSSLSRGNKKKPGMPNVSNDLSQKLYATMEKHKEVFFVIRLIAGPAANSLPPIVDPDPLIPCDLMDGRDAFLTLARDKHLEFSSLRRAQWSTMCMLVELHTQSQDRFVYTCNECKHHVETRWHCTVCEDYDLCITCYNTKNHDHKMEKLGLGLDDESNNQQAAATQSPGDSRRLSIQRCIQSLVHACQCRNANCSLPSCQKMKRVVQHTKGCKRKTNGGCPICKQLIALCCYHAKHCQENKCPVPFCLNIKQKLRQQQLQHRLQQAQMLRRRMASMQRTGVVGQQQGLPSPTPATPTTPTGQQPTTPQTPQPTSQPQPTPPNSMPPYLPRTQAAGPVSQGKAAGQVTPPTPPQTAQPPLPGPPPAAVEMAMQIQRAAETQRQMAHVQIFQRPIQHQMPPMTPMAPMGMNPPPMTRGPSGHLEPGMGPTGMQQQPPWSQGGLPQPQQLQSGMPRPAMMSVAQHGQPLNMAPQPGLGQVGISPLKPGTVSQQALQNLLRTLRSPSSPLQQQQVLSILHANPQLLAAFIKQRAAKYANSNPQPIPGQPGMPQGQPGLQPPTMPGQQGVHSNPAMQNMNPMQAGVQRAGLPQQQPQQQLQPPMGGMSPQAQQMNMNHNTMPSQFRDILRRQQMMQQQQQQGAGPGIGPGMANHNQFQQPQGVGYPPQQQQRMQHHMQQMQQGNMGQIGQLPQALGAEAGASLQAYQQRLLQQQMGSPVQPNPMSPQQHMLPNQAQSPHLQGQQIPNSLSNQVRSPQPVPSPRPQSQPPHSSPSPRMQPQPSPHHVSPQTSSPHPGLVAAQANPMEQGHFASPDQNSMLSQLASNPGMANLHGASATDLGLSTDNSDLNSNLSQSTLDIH

p300 protein abundance log2(fold change) (p300): 0.37
Compound: CNC(=O)COc1cc2cc(Nc3nc(N4CCC(C(=O)N5CCN(CCC(=O)N6CCC(n7nc(N8CCCc9cc(-c%10cnn(C)c%10)c(C(F)F)cc98)c8c7CCN(C(=O)NC)C8)CC6)CC5)CC4)ncc3Cl)cc(OC)c2n(C)c1=O [TCIP3]
cytotoxicity [1]: substantially reduced cytotoxicity; also recorded: without exhibiting toxicity | c-MYC mRNA log2(fold change) (c-MYC): −2.71
